Results reported in patent publication US6914045B2, “Glycopeptide antibiotics” (Wyeth Holdings Corporation, priority 2001, dated 2005).
In brackets after ≈: the same amount, converted by molar mass.

Experiments:
[1] = test system: Enterococcus sp.; experiment: in vitro antibacterial evaluation, MIC by broth dilution; format: cell-based; settings: broth dilution, 18 hours at 35° C.; for MIC Enterococcus faecalis (GC 2242): strain GC 2242; for MIC Enterococcus faecalis (GC 2691): strain GC 2691; for MIC Enterococcus faecalis (GC 3059): strain GC 3059; for MIC Enterococcus faecalis (GC 4552): strain GC 4552
How it was run: (§1)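 Step 1: dilute antibiotic across 64-0.06 μg/mL in Muller-Hinton II […]. Step 2: inoculate at 5×10^5 CFU/mL.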

[2] = test system: Escherichia coli; experiment: as above; format: cell-based; settings: 18 hours at 35° C.
How it was run: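 Broth dilution per NCCLS standard M7-A2 in Muller-Hinton II […], with an inoculum of 5×10^5 CFU/mL and antibiotic spanning 64-0.06 μg/mL. The MIC is the lowest concentration that inhibits growth of the organism.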

[3] = test system: Staphylococcus sp.; experiment: as above; format: cell-based; settings: broth dilution, 18 hours at 35° C.
How it was run: as §1

[4] = test system: Streptococcus sp.; experiment: as above; format: cell-based; settings: broth dilution, 18 hours at 35° C.; for MIC Streptococcus pneumoniae (ATCC 6301): strain ATCC 6301; for MIC Streptococcus pneumoniae (GC 1894): strain GC 1894; for MIC Streptococcus pyogenes (GC 4563): strain GC 4563; for MIC Streptococcus agalactiae (GC 4564): strain GC 4564; for MIC Streptococcus pneumoniae (GC 4565): strain GC 4565
How it was run: as §1

[5] = clinical pathology (serum clinical chemistry) in mice; format: in vivo; settings: CD-1 mice, 20 mg/kg intravenously daily for 9 days, sera day 10
Experimental: 20-day-old CD-1 mice were divided into a vehicle control group (5 mice) and a treatment group (5 mice). Samples of glycopeptide antibiotics were administered at 20 mg/kg intravenously daily for 9 days.

[6] = anatomic pathology (histopathology of heart and kidney) in mice; format: in vivo; settings: CD-1 mice, 20 mg/kg intravenously daily for 9 days, necropsy day 10, microscopic histopathology
Experimental: Samples of tissues from necropsied mice were formalin-fixed, paraffin-embedded, sectioned, stained with hematoxylin and eosin, and examined microscopically. Histopathologic findings were recorded. These findings were subjectively graded on a scale corresponding to slight, mild, moderate, marked and severe as compared to untreated controls.

[7] = Enterococcus faecalis (ATCC 29212)
[8] = Enterococcus faecalis (GC 4553)
[9] = Enterococcus faecalis (GC 4554)
[10] = Enterococcus faecalis (GC 6189)

## CC(c1ccccc1)C1NC(=O)CNC(=O)C(CO)NC(=O)C(CC2CNC(=N)N2C2OC(CO)C(O)C(O)C2O)NC(=O)C(CC2CNC(=N)N2)NC(=O)C(Cc2ccc(OC3OC(CO)C(OC4OC(CO)C(O)C(O)C4O)C(O)C3O)cc2)NC1=O (centres unmarked) [Example 277a]
[1]; Enterococcus avium (GC 4558)
  MIC Enterococcus avium (GC 4558): 128 µg/mL (≈ 101 µM)
[1]; [7]
  MIC Enterococcus faecalis (ATCC 29212): >128 µg/mL
[1]; [8]
  MIC Enterococcus faecalis (GC 4553): >128 µg/mL
[1]; [9]
  MIC Enterococcus faecalis (GC 4554): >128 µg/mL
[1]; [10]
  MIC Enterococcus faecalis (GC 6189): >128 µg/mL
[1]; Enterococcus faecium (GC 2243)
  MIC Enterococcus faecium (GC 2243): >128 µg/mL
[1]; Enterococcus faecium (GC 4556)
  MIC Enterococcus faecium (GC 4556): >128 µg/mL
[1]; Enterococcus faecium (GC 4557)
  MIC Enterococcus faecium (GC 4557): 128 µg/mL (≈ 101 µM)
[1]; strain ATCC 29212
  MIC Enterococcus faecalis (ATCC 29212): >128 µg/mL
[1]
  MIC Enterococcus faecalis (GC 2242): >128 µg/mL
  MIC Enterococcus faecalis (GC 2691): >128 µg/mL
  MIC Enterococcus faecalis (GC 3059): >128 µg/mL
  MIC Enterococcus faecalis (GC 4552): >128 µg/mL
[1]; strain GC 2243
  MIC Enterococcus faecium (GC 2243): >128 µg/mL
[1]; strain GC 4553
  MIC Enterococcus faecalis (GC 4553): >128 µg/mL
[1]; strain GC 4554
  MIC Enterococcus faecalis (GC 4554): >128 µg/mL
[1]; strain GC 4556
  MIC Enterococcus faecium (GC 4556): >128 µg/mL
[1]; strain GC 4557
  MIC Enterococcus faecium (GC 4557): 128 µg/mL (≈ 101 µM)
[1]; strain GC 4558
  MIC Enterococcus avium (GC 4558): 128 µg/mL (≈ 101 µM)
[1]; strain GC 6189
  MIC Enterococcus faecalis (GC 6189): >128 µg/mL
[2]
  MIC Escherichia coli (ATCC 25922): >128 µg/mL
  MIC Escherichia coli (GC 4559): >128 µg/mL
  MIC Escherichia coli (GC 4560): >128 µg/mL
[3]
  MIC Coagulase Negative Staphylococcus (GC 4547): >128 µg/mL
  MIC Coagulase Negative Staphylococcus (GC 4548): >128 µg/mL
  MIC Coagulase Negative Staphylococcus (GC 4549): >128 µg/mL
  MIC Coagulase Negative Staphylococcus (GC 4551): >128 µg/mL
  MIC Staphylococcus aureus (ATCC 29213): >128 µg/mL
  MIC Staphylococcus aureus (GC 1131): >128 µg/mL
  MIC Staphylococcus aureus (GC 3051): >128 µg/mL
  MIC Staphylococcus aureus (GC 3053): >128 µg/mL
  MIC Staphylococcus aureus (GC 4541): >128 µg/mL
  MIC Staphylococcus aureus (GC 4542): >128 µg/mL
  MIC Staphylococcus aureus (GC 4544): >128 µg/mL
  MIC Staphylococcus aureus (GC 4545): >128 µg/mL
  MIC Staphylococcus aureus-SMITH (GC 4543): >128 µg/mL
  MIC Staphylococcus haemolyticus (GC 4546): >128 µg/mL
[3]; strain ATCC 29213
  MIC Staphylococcus aureus (ATCC 29213): >128 µg/mL
[3]; strain GC 1131
  MIC Staphylococcus aureus (GC 1131): >128 µg/mL
[3]; strain GC 3051
  MIC Staphylococcus aureus (GC 3051): >128 µg/mL
[3]; strain GC 3053
  MIC Staphylococcus aureus (GC 3053): >128 µg/mL
[3]; strain GC 4541
  MIC Staphylococcus aureus (GC 4541): >128 µg/mL
[3]; strain GC 4542
  MIC Staphylococcus aureus (GC 4542): >128 µg/mL
[3]; strain GC 4544
  MIC Staphylococcus aureus (GC 4544): >128 µg/mL
[3]; strain GC 4545
  MIC Staphylococcus aureus (GC 4545): >128 µg/mL
[3]; strain GC 4546
  MIC Staphylococcus haemolyticus (GC 4546): >128 µg/mL
[3]; strain GC 4547
  MIC Coagulase Negative Staphylococcus (GC 4547): >128 µg/mL
[3]; strain GC 4548
  MIC Coagulase Negative Staphylococcus (GC 4548): >128 µg/mL
[3]; strain GC 4549
  MIC Coagulase Negative Staphylococcus (GC 4549): >128 µg/mL
[3]; strain GC 4551
  MIC Coagulase Negative Staphylococcus (GC 4551): >128 µg/mL
[3]; strain SMITH GC 4543
  MIC Staphylococcus aureus-SMITH (GC 4543): >128 µg/mL
[4]
  MIC Streptococcus pneumoniae (ATCC 6301): >128 µg/mL
  MIC Streptococcus pneumoniae (GC 1894): >128 µg/mL
  MIC Streptococcus pyogenes (GC 4563): >128 µg/mL
  MIC Streptococcus agalactiae (GC 4564): >128 µg/mL
  MIC Streptococcus pneumoniae (GC 4565): >128 µg/mL
[5]
  Clinical Chemistry (Day 10) % of Control, BUN: +110%
[6]
  Anatomical Pathology (Day 10), Heart: 0
  Anatomical Pathology (Day 10), Kidney: ++

## CC(C)CC(=O)OC1C(OC2C(CO)OC(Oc3ccc(CC4NC(=O)C(C(C)c5ccccc5)NC(=O)CNC(=O)C(CO)NC(=O)C(CC5CNC(=N)N5C5OC(CO)C(O)C(O)C5O)NC(=O)C(CC5CNC(=N)N5)NC4=O)cc3)C(O)C2O)OC(CO)C(O)C1O (stereo not drawn) [Example 277b, Cyclo[3-(2-iminoimidazolidin-4-yl)alanyl-3-(3-hexogyranosyl-2-iminoimidazolidin-4-yl)-alanylserylglycyl-β-methylphenylalanyl-O-[4-O-[2-O-(3-methylbutanoyl)hexopyranosyl]-hexopyranosyl]tyrosyl]]
[1]; Enterococcus avium (GC 4558)
  MIC Enterococcus avium (GC 4558): >64 µg/mL
[1]; [7]
  MIC Enterococcus faecalis (ATCC 29212): >64 µg/mL
[1]; [8]
  MIC Enterococcus faecalis (GC 4553): >64 µg/mL
[1]; [9]
  MIC Enterococcus faecalis (GC 4554): >64 µg/mL
[1]; [10]
  MIC Enterococcus faecalis (GC 6189): >64 µg/mL
[1]; Enterococcus faecium (GC 2243)
  MIC Enterococcus faecium (GC 2243): >64 µg/mL
[1]; Enterococcus faecium (GC 4556)
  MIC Enterococcus faecium (GC 4556): >64 µg/mL
[1]; Enterococcus faecium (GC 4557)
  MIC Enterococcus faecium (GC 4557): >64 µg/mL
[1]; strain ATCC 29212
  MIC Enterococcus faecalis (ATCC 29212): >64 µg/mL
[1]
  MIC Enterococcus faecalis (GC 2242): >64 µg/mL
  MIC Enterococcus faecalis (GC 2691): >64 µg/mL
  MIC Enterococcus faecalis (GC 3059): >64 µg/mL
  MIC Enterococcus faecalis (GC 4552): >64 µg/mL
[1]; strain GC 2243
  MIC Enterococcus faecium (GC 2243): >64 µg/mL
[1]; strain GC 4553
  MIC Enterococcus faecalis (GC 4553): >64 µg/mL
[1]; strain GC 4554
  MIC Enterococcus faecalis (GC 4554): >64 µg/mL
[1]; strain GC 4556
  MIC Enterococcus faecium (GC 4556): >64 µg/mL
[1]; strain GC 4557
  MIC Enterococcus faecium (GC 4557): >64 µg/mL
[1]; strain GC 4558
  MIC Enterococcus avium (GC 4558): >64 µg/mL
[1]; strain GC 6189
  MIC Enterococcus faecalis (GC 6189): >64 µg/mL
[2]
  MIC Escherichia coli (ATCC 25922): >64 µg/mL
  MIC Escherichia coli (GC 4559): >64 µg/mL
  MIC Escherichia coli (GC 4560): 32 µg/mL (≈ 23.7 µM)
[3]
  MIC Coagulase Negative Staphylococcus (GC 4547): >64 µg/mL
  MIC Coagulase Negative Staphylococcus (GC 4548): >64 µg/mL
  MIC Coagulase Negative Staphylococcus (GC 4549): >64 µg/mL
  MIC Coagulase Negative Staphylococcus (GC 4551): >64 µg/mL
  MIC Coagulase Negative Staphylococcus (GC 6257): >64 µg/mL
  MIC Staphylococcus aureus (ATCC 29213): >64 µg/mL
  MIC Staphylococcus aureus (GC 1131): >64 µg/mL
  MIC Staphylococcus aureus (GC 3051): >64 µg/mL
  MIC Staphylococcus aureus (GC 3053): >64 µg/mL
  MIC Staphylococcus aureus (GC 4541): >64 µg/mL
  MIC Staphylococcus aureus (GC 4542): >64 µg/mL
  MIC Staphylococcus aureus (GC 4544): >64 µg/mL
  MIC Staphylococcus aureus (GC 4545): >64 µg/mL
  MIC Staphylococcus aureus-SMITH (GC 4543): >64 µg/mL
  MIC Staphylococcus haemolyticus (GC 4546): >64 µg/mL
[3]; strain ATCC 29213
  MIC Staphylococcus aureus (ATCC 29213): >64 µg/mL
[3]; strain GC 1131
  MIC Staphylococcus aureus (GC 1131): >64 µg/mL
[3]; strain GC 3051
  MIC Staphylococcus aureus (GC 3051): >64 µg/mL
[3]; strain GC 3053
  MIC Staphylococcus aureus (GC 3053): >64 µg/mL
[3]; strain GC 4541
  MIC Staphylococcus aureus (GC 4541): >64 µg/mL
[3]; strain GC 4542
  MIC Staphylococcus aureus (GC 4542): >64 µg/mL
[3]; strain GC 4544
  MIC Staphylococcus aureus (GC 4544): >64 µg/mL
[3]; strain GC 4545
  MIC Staphylococcus aureus (GC 4545): >64 µg/mL
[3]; strain GC 4546
  MIC Staphylococcus haemolyticus (GC 4546): >64 µg/mL
[3]; strain GC 4547
  MIC Coagulase Negative Staphylococcus (GC 4547): >64 µg/mL
[3]; strain GC 4548
  MIC Coagulase Negative Staphylococcus (GC 4548): >64 µg/mL
[3]; strain GC 4549
  MIC Coagulase Negative Staphylococcus (GC 4549): >64 µg/mL
[3]; strain GC 4551
  MIC Coagulase Negative Staphylococcus (GC 4551): >64 µg/mL
[3]; strain GC 6257
  MIC Coagulase Negative Staphylococcus (GC 6257): >64 µg/mL
[3]; strain SMITH GC 4543
  MIC Staphylococcus aureus-SMITH (GC 4543): >64 µg/mL
[4]
  MIC Streptococcus pneumoniae (ATCC 6301): 64 µg/mL (≈ 47.5 µM)
  MIC Streptococcus pneumoniae (GC 1894): >64 µg/mL
  MIC Streptococcus pyogenes (GC 4563): >64 µg/mL
  MIC Streptococcus agalactiae (GC 4564): >64 µg/mL
  MIC Streptococcus pneumoniae (GC 4565): >64 µg/mL
[5]
  Clinical Chemistry (Day 10) % of Control, ALT: +164%
  Clinical Chemistry (Day 10) % of Control, AST: +138%
  Clinical Chemistry (Day 10) % of Control, BUN: +113%
[6]
  Anatomical Pathology (Day 10), Heart: 0
  Anatomical Pathology (Day 10), Kidney: +
